# Like-named read-outs stand apart in the source and are kept apart here.
# Experiments:
# Mcl-1 = molecular target: T1, Mcl-1 (Homo sapiens, UniProt Q07820); test: Competition fluorescence polarization (anisotropy) with fluoresceinated BIM; type: binding
# T1 construct: c-myc
# Experimental: C-myc-tagged receptors were used for all Bcl-2 homologs, as previously described ([DeBartolo et al., 2012]; [Dutta et al., 2010]). Plates were mixed at 23°C for 3 hr. Plates were read again at 24 to check equilibration. Experiments were done in at least triplicate. Data were fit, as described for competition fluorescence anisotropy experiments in [Foight et al. (2014]), to a complete competitive binding model (equation 17 in [Roehrl et al. [2004]]) using a Python script.
# [1] = test system: BCR-ABL-expressing B-lineage acute lymphoblastic leukemia cells dependent on Bcl-xL; test: BH3 profiling, mitochondrial depolarization (JC-1) in permeabilized cells; type: cell-based; settings: BH3 profiling fits Bcl-xL, sigmoidal dose-response (variable slope), fit ambiguous
# Experimental: Cell line identities were confirmed by STR profiling.
# Peptides were titrated by serial dilution in MEB buffer (150 mM Mannitol, 10 mM HEPES-KOH pH 7.5, 50 mM KCl, 0.02 mM EGTA, 0.02 mM EDTA, 0.1% BSA and 5 mM Succinate) containing 20 μg/mL oligomycin, 50 μg/mL digitonin, 2 μM JC-1 and 10 mM 2-mercaptoethanol in 384-well plates. Controls for no depolarization (1% DMSO) and complete depolarization with the mitochondrial oxidative phosphorylation uncoupler FCCP (20 μM) were included for data normalization. […] 15 μL of cell suspension was added to each well containing 15 μL of treatment solution. […] To produce percent depolarization, the area under the resultant curve was calculated and normalized to the assay controls. Peptide titration curves were fit to sigmoidal dose-response curves using Graphpad PRISM seven to obtain EC50 values.
# Bfl-1 [2] = molecular target: T2, Bfl-1 (Homo sapiens, UniProt Q16548); test: Competition fluorescence polarization (anisotropy) with fluoresceinated BIM; type: binding; settings: competition FP source data; for Ki: mean of three replicates
# T2 construct: c-myc
# T2 sequence (Q16548 1-175): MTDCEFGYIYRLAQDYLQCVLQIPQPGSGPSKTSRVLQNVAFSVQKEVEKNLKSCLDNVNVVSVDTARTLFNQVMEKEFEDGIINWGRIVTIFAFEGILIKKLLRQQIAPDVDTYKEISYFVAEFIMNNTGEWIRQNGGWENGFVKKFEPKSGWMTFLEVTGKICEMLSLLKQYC
# Experimental: (§1) Plates were mixed at 23°C for 3 hr. Plates were read again at 24 to check equilibration. Experiments were done in at least triplicate.
# Bfl-1 [3] = test: as above; type: binding, human; settings: ratio of Ki values from competition FP
# Experimental: as §1
# [4] = competition FP source data, mean of three replicates, values above 5 μM are reported as > 5 μM in the figures, read-out: mean Ki (M) Mcl-1
# [5] = competition FP source data, replicate 1
# [6] = competition FP source data, replicate 2
# [7] = competition FP source data, replicate 3
# T1 sequence (Q07820 whole entry): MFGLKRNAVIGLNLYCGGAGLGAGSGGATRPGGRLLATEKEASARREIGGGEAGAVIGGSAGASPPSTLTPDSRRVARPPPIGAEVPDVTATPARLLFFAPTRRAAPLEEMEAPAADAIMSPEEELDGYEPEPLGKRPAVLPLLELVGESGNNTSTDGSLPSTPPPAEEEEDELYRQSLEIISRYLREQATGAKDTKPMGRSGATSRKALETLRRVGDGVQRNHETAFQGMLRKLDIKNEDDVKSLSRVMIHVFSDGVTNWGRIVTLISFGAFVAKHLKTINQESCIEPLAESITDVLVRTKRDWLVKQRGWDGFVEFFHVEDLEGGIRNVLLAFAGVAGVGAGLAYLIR
Ki (Mcl-1; [4]),Ki (M) Mcl-1 (Mcl-1; [5]),Ki (M) Mcl-1 (Mcl-1; [6]),Ki (M) Mcl-1 (Mcl-1; [7]),"Ki (Mcl-1; competition FP, 50 nM c-myc-tagged receptor + 25 nM fluoresceinated BIM, Tris pH 7.8, 23°C, 3 hr, mean ± SD of three replicates, read-out: Ki (nM) Mcl-1)",Substance,Bottom (best-fit value) ([1]; constraint Bottom < 5),Top (best-fit value) ([1]; constraint Top > 78),HillSlope (best-fit value) [1],LogEC50 (best-fit value) ([1]; x = Log [Peptide] M),Ki (Bfl-1 [2]),Ki (M) Bfl-1 (Bfl-1 [2]; replicate 1),Ki (M) Bfl-1 (Bfl-1 [2]; replicate 2),Ki (M) Bfl-1 (Bfl-1 [2]; replicate 3),"specificity for Bfl-1 relative to Bcl-xL, Bcl-2, Bcl-w and Mcl-1 (Bfl-1 [3])",fold weaker binding to Mcl-1 than to Bfl-1 (Mcl-1; ratio of Ki values from competition FP)
5.52e-07 M,6.51e-07 M,6.19e-07 M,3.85e-07 M,,Ac-QWIREIAAGLRRFADILNAQVER-NH2 [FS3],~ 5,97.17,~ 8.841,~ -4.964,,,,,,
7.64e-06 M,2.37e-06 M,8.12e-06 M,1.24e-05 M,> 5e-06 M,Ac-QWVREIAAGLRLAADNVNAQLER-NH2 [FS1],,,,,14.9 nM,1.51e-08 M,1.72e-08 M,1.22e-08 M,at least 150 fold,

Substance,Ki (Mcl-1; [4]),Ki (M) Mcl-1 (Mcl-1; [5]),Ki (M) Mcl-1 (Mcl-1; [6]),Ki (M) Mcl-1 (Mcl-1; [7]),"Ki (Mcl-1; competition FP, 50 nM c-myc-tagged receptor + 25 nM fluoresceinated BIM, Tris pH 7.8, 23°C, 3 hr, mean ± SD of three replicates, read-out: Ki (nM) Mcl-1)",Bottom (best-fit value) ([1]; constraint Bottom < 5),Top (best-fit value) ([1]; constraint Top > 78),HillSlope (best-fit value) [1],LogEC50 (best-fit value) ([1]; x = Log [Peptide] M),Ki (Bfl-1 [2]),Ki (M) Bfl-1 (Bfl-1 [2]; replicate 1),Ki (M) Bfl-1 (Bfl-1 [2]; replicate 2),Ki (M) Bfl-1 (Bfl-1 [2]; replicate 3),"specificity for Bfl-1 relative to Bcl-xL, Bcl-2, Bcl-w and Mcl-1 (Bfl-1 [3])",fold weaker binding to Mcl-1 than to Bfl-1 (Mcl-1; ratio of Ki values from competition FP)
Ac-QWVREIAAGLRRAADDVNAQVER-NH2 [FS2],,2.88e-06 M,3.39e-06 M,3.32e-06 M,,,,,,21.4 nM,2.51e-08 M,2.52e-08 M,1.4e-08 M,,> 100 fold
